Patent US20110280930A1, “PRODUCTS AND METHODS FOR STIMULATING AN IMMUNE RESPONSE” (priority 2008, published 2011)

System: DN32.D3 cells
Test: αGalCer presentation by B cells to iNKT cells (IL-2 production)
Format: cell-based, mouse
Details: MD4 B cells pulsed with particles or soluble αGalCer, then cocultured with DN32.D3 cells; IL-2 by ELISA
Description: Splenic B cells were enriched by negative selection to >99% purity using B cell purification kit (Miltenyi Biotec). For analysis of αGalCer presentation, B cells were incubated overnight with particles containing αGalCer and/or HEL, extensively washed and cultured at 5×10^4 cells per well with the same number of DN32.D3 cells. NKT activation was assayed by measuring IL-2 production in the culture supernatant. For blocking experiments MD4 B cells were incubated with an antiCDld blocking antibody (25 μg/ml; clone 1B1) for 2 h before incubation with iNKT cells.
Concentration of IL-2 in the supernatant of the cultures was determined by ELISA using the JES6-1A12 capture antibody (BD Pharmingen). Biotinylated JSE6-5H4 (BD Pharmingen) was used for detection. Specific antibody in mice sera were measured using plates coated with antigen (HEL, OVA or CGG) and serial dilutions of sera. Bound antibodies were detected with biotin-labelled goat anti-mouse IgM, IgG, IgG1, IgG2b, IgG2c or IgG3 (BD Pharmingen).
We aspired to investigate the impact of targeting iNKT cell help to antigen specific B cells during the development of an immune response. […] Alexa-488-labeled-αGalCer was used to quantify the amount of αGalCer loaded on the beads, and we found this to be 150 ng per μl of beads (10^8 beads/μl). […]

CCCCCCCCCCCCCCCCCCCCCCCCCC(=O)N[C@@H](CO[C@H]1O[C@H](CO)[C@H](O)[C@H](O)[C@H]1O)[C@H](O)[C@H](O)CCCCCCCCCCCCCC [soluble αGalCer, α-galactosylceramide]
iNKT cell activation (IL-2 production): efficiently presented by B cells and induced IL-2 production
